Here are results for one molecule from patent publication US20220401414A1, “TREATMENT AND PREVENTION OF A NEURODEGENERATIVE DISORDER” (Inflazome Limited, priority 2019, published 2022).

Assay type in all cases: in vivo, C57BL6 mice
Assay [1] concerns 6-OHDA mouse model of Parkinson's disease. The assay is described as follows: Studies C and D: amphetamine-induced ipsilateral rotations in the 6-OHDA mouse model. The following applies: day 21 after 6-OHDA (12 μg). How it is done:
(§1) To determine the oral efficacy of the compound of formula (I) in the 6-OHDA mouse model of Parkinson's disease.
(§2) 8-week-old C57BL6 male mice (obtained from ARC, Perth, Australia) were housed under a 12-h light cycle in a SPF climate-controlled facility with food and water provided ad libitum for two weeks prior to study initiation. For treatment with the compound of formula (I), mice were dosed via oral gavage. Ten (10) mice in each group were dosed at 3 or 1 mg/kg, starting the day before (24 hr prior) stereotaxic surgery, and then QD until sacrifice.
6-OHDA (Sigma) was prepared immediately prior to surgeries. A sterile saline (0.9%) solution containing ascorbic acid (0.2%) was used as the vehicle to dissolve 6-OHDA. […] In order to inject a final concentration of 12 μg into the right striatum, a working stock of 6 mg/ml was made injecting a final volume of 2 μl.
Mice were anaesthetized using ketamine (100 mg/kg, i.p.) and xylazine (10 mg/kg i.p.)
anesthesia and were placed into a stereotactic frame with nose and ear bars specially adapted for mice. The lesion was performed using a 5 μl Hamilton syringe to deliver either vehicle or 6-OHDA (12 μg) at the following coordinates relative to bregma: AP: −1.2 mm; ML: −1.7 mm; DV: 3.5 mm into the right dorsal striatum according to the stereotaxic atlas (“The mouse brain in stereotaxic coordinates” by Paxinos and Franklin, 1997). After drilling a 1 mm burr-hole in the skull, a 2 μl volume of solution was infused at the target site at the rate of 0.5 μl per minute. The needle was held in place for at least 5 minutes after injection to minimize retrograde flow along the needle tract. Mice were administered a subcutaneous injection of sterile Ringer's solution to is facilitate recovery and were placed on a heat-pad until complete recovery from anesthesia.
Amphetamine-induced ipsilateral rotations were performed at day 21 post-surgery. Mice were injected with 2 mg/kg of D-amphetamine and placed in circular glass bowls.
After an acclimatization period of five minutes, the net ipsilateral rotations over ten minutes were recorded and counted. Quantitation was performed from recorded videos by an investigator blinded to the treatment groups.
The aim of study D was to compare the neuroprotective efficacy of the compound of formula (I) with MCC95o in the mouse unilateral 6-OHDA model at 3 mg/kg. The amphetamine-induced ipsilateral rotations and striatal dopamine (DA) levels were assessed, using a protocol identical to that used for study C, with ten (10) mice in each group being dosed at 3 mg/kg for each drug, starting the day before (24 hr prior) stereotaxic surgery, and then daily throughout until sacrifice.

Assay [2] shares this test system. Put plainly: Studies C and D: LC-MS/MS quantification of striatal dopamine and metabolites in the 6-OHDA mouse model. The following applies: 28 days after the 6-OHDA lesion. The protocol: as §1, §2
6-OHDA (Sigma) was prepared immediately prior to surgeries. A sterile saline (0.9%) solution containing ascorbic acid (0.2%) was used as the vehicle to dissolve 6-OHDA. […]
Mice were sacrificed 1 week after the amphetamine test (day 28) and striatal tissue was micro-dissected, weighed and snap-frozen at −80° C. […] Striatal dopamine (DA) and its metabolites (DOPAC and HVA) were quantified in their stable derivative 3o form in the presence of internal standard 3,4-dihydroxybenzylamine (DHBA) using highly sensitive liquid chromatography-tandem mass spectrometry (LC-MS/MS) as described previously (Park et al., Biol. Pharm. Bull., 2013, vol. 36, pp. 252-8). […] For quantitation, one transition per analyte was monitored and two transitions per analyte were monitored for qualitative purposes. […]

For the next assay, the system named is IL-1β. Put plainly: Study H: IL-1β ELISA in plasma of PFF-Synuclein mice. Particulars: 0.3 mg/ml drinking water, 12 months after PFF-Synuclein injections. The text has this:
To determine the oral efficacy of the compound of formula (I) in a chronic progressive model of Parkinson's disease (PD), the preformed fibrils (PFF) mouse model, using a prophylactic and therapeutic dosing schedule.
8-week-old C57BL6 male mice (obtained from ARC, Perth, Australia) were housed under a 12-h light cycle in a SPF climate-controlled facility with food and water provided ad libitum for two weeks prior to study initiation. The compound of formula (I) (or water alone for control animals) was administrated to mice in drinking water at 0.3 mg/ml. Animals were separated into the groups described in Table 9, with ten animals initiated in each cohort. […]
Recombinant human a-synuclein was obtained from rPeptide Inc., and in vitro fibril generation was performed with a final concentration of 2 mg/ml in phosphate-buffered saline (PBS) by incubation at 37° C. with agitation in an orbital mixer (400 rpm) for 7 days with daily cycles of sonication used to break down fibrillar aggregates as outlined in previously published reports (see Luk et al., Science, 2012, vol. 338(6109), pp. 949-53; and Zhang et al., Methods Mol. Biol., 2019, vol. 1948, pp. 45-57, which are incorporated in their entirety herein by reference). The generation of fibrillar α-synuclein species was confirmed by transmission electron microscopy and Thioflavin T fluorescence prior to use. […]

On to `CC(C)n1ccc(S(=O)(=O)NC(=O)Nc2c3c(cc4c2CCC4)CCC3)n1` [compound of formula (I)], for which the amphetamine-induced ipsilateral rotations result in assay [1] (Study C, 3 mg/kg oral gavage QD from 24 hr before surgery) was “significant protective effect”; in assay [1] (Study D, 3 mg/kg oral daily) it was “fewer ipsilateral rotations compared to MCC950”. Besides, the “reduction in amphetamine-induced rotations relative to the 6-OHDA untreated group” value in assay [1] (Study D, 3 mg/kg oral daily) is reported as 75%. Moreover, the “striatal dopamine (with metabolites DOPAC and HVA)” value in assay [2] (Study C, 3 mg/kg oral QD) is listed as “significantly protected against the loss of dopamine”. Also, the striatal dopamine entry in assay [2] (Study D, 3 mg/kg oral daily) is on record as “significantly protected against the loss of dopamine with improved efficacy compared to MCC950”. The “circulating IL-1β in plasma compared with the PFF-Synuclein group” value in the assay on IL-1β (prophylactic treatment) and in the assay with IL-1β (therapeutic treatment) was “significant decrease in circulating IL-1β” each time.
